Source: article PMC8226722, “Comparison of Solution Chemical Properties and Biological Activity of Ruthenium Complexes of Selected β-Diketone, 8-Hydroxyquinoline and Pyrithione Ligands” (Pharmaceuticals, 2021)

Tests used:
physchem = experiment: physchem
Experimental: The solution speciation studies of complexes 1–4 were performed using UV-vis spectrophotometry and pH-potentiometry in the presence of 200 mM chloride ions.
(§1) Titrations were performed in a carbonate-free KOH solution (0.20 M). The exact concentration of HCl and KOH solutions was determined by pH-potentiometric titrations.
(§2) The path length (l) was usually 1 cm, and 2, 5, 20 or 50 mm cells were used occasionally. Equilibrium constants (proton dissociation, stability constants, conditional stability constants (K’7.4) for the formation of mim adducts) and the individual spectra of the species were calculated with the computer program PSEQUAD [55]. The spectrophotometric titrations were performed in aqueous solution of the complexes at 25.0 ± 0.1 °C at an ionic strength of 0.20 M (KCl). Spectrum of the solution of 200 μM complex upon addition of one or two equivalents of its own ligand or phen was also measured at pH 7.4. UV-vis spectra recorded for the complexes as a function of chloride concentrations or PTA (in case of the chlorido complexes) were used to investigate the co-ligand exchange processes at pH 7.4. […] In some cases, the measurements were performed in the presence of 1–2% (Cl^−/PTA exchange reactions) or 6–8% (v/v) (interaction of mim with complexes 2, 4) DMSO.

[1] = system: Colo 320 multidrug resistant human colonic adenocarcinoma cell line; experiment: MTT cytotoxicity assay, Colo 320; assay type: cell-based; conditions: for IC50: 72 h, MTT; for S.I. MRC-5/Colo 320: ratio of the indicated IC50 values
Experimental: (§3) Human colonic adenocarcinoma cell lines Colo 205 doxorubicin-sensitive (ATCC-CCL-222) and Colo 320/MDR-LRP multidrug resistant expressing ABCB1 (MDR1)-LRP (ATCC-CCL-220.1) were purchased from LGC Promochem (Teddington, UK). […] Cell lines were incubated at 37 °C, in a 5% CO2, 95% air atmosphere. The semi-adherent human colon cancer cells were detached with Trypsin-Versene (EDTA, Sigma, Steinheim, Germany) solution for 5 min at 37 °C. MRC-5 human embryonal lung fibroblast cell lines (ATCC CCL-171) were purchased from LGC Promochem. […] The cell lines were incubated at 37 °C, in a 5% CO2, 95% air atmosphere.
(§4) In the study MRC-5 non-cancerous human embryonic lung fibroblast and human colonic adenocarcinoma cell lines (doxorubicin-sensitive Colo 205 and multidrug resistant Colo 320 colonic adenocarcinoma cells) were used to determine the effect of compounds on cell growth. The effects of increasing concentrations of compounds on cell growth were tested in 96-well flat-bottomed microtiter plates. The stock solutions of the compounds were prepared in DMSO, and in the final samples the DMSO content was always lower than 1%. The compounds were diluted in a volume of 100 μL of medium.
(§5) In case of the colonic adenocarcinoma cells, the two-fold serial dilutions of compounds were prepared in 100 μL of RPMI 1640, horizontally. The semi-adherent colonic adenocarcinoma cells were treated with Trypsin-Versene (EDTA) solution. They were adjusted to a density of 1 × 10^4 cells in 100 μL of RPMI 1640 medium, and were added to each well, with the exception of the medium control wells. The final volume of the wells containing compounds and cells was 200 μL.
(§6) The culture plates were incubated at 37 °C for 72 h; at the end of the incubation period, 20 μL of MTT (Sigma) solution (from a stock solution of 5 mg/mL) were added to each well. After incubation at 37 °C for 4 h, 100 μL of sodium dodecyl sulfate (SDS) (Sigma) solution (10% in 0.01 M HCl) were added to each well and the plates were further incubated at 37 °C overnight. Cell growth was determined by measuring the optical density (OD) at 540/630 nm with Multiscan EX ELISA reader (Thermo Labsystems, Cheshire, WA, USA). […] Curves were fitted by Prism software (GraphPad Software Inc., San Diego, CA, USA) using the sigmoidal dose-response model (comparing variable and fixed slopes). The IC50 values were obtained from at least 3 independent experiments.

[2] = system: Colo 205 chemo-sensitive human colonic adenocarcinoma cell line; experiment: MTT cytotoxicity assay, Colo 205; assay type: cell-based; conditions: for IC50: 72 h, MTT; for S.I. MRC-5/Colo 205: ratio of the indicated IC50 values
Experimental: as §3, §4, §5, §6

[3] = system: MRC-5 normal human embryonal lung fibroblast cells; experiment: MTT cytotoxicity assay, MRC-5; assay type: cell-based; conditions: 72 h
Experimental: as §3, §4, §5, §6

[4] = system: Klebsiella pneumoniae ATCC 49619; experiment: MIC determination (CLSI broth microdilution); assay type: cell-based; conditions: Gram-negative, ATCC 49619, 18 h
Experimental: (§7) Wild-type Escherichia coli K-12 AG100 strain [argE3 thi-1 rpsL xyl mtl Δ(gal-uvrB) supE44] expressing the AcrAB TolC EP at its basal level and Klebsiella pneumoniae ATCC 49,619 Gram-negative strains were studied in the experiments. Staphylococcus aureus ATCC 43,300 methicillin-resistant (MRSA) strain and Enterococcus faecalis ATCC 29,212 strain were used as Gram-positive strains in the assays. MIC values of the complexes were determined in 96-well plates based on the Clinical and Laboratory Standard Institute guidelines (CLSI guidelines). The stock solutions of the compounds (dissolved in DMSO using 10 mM concentration) were diluted in 100 μL of Mueller Hinton Broth. Then 10^−4 dilution of an overnight bacterial culture in 100 μL of medium was added to each well, with the exception of the medium control wells.

[5] = system: Staphylococcus aureus ATCC 43300 methicillin-resistant (MRSA); experiment: MIC determination (CLSI broth microdilution); assay type: cell-based; conditions: Gram-positive, MRSA ATCC 43300, 18 h
Experimental: as §7

[6] = system: Enterococcus faecalis ATCC 29212; experiment: MIC determination (CLSI broth microdilution); assay type: cell-based; conditions: Gram-positive, ATCC 29212, 18 h
Experimental: as §7

[7] = system: Escherichia coli K-12 AG100; experiment: MIC determination (CLSI broth microdilution); assay type: cell-based; conditions: Gram-negative, AG100, 18 h
Experimental: as §7

[8] = system: HeLa 229 human cervix carcinoma cells; experiment: MTT cytotoxicity in HeLa 229 cells (maximum non-toxic concentration); conditions: 48 h
Experimental: (§8) HeLa 229 cells (ATCC) and Vero cells (ATCC) were cultured in minimal essential medium (MEM) (Sigma, Steinheim, Germany) with Earle salts supplemented with 10% heat-inactivated fetal bovine serum (FBS) (Gibco; ThermoFisher Scientific, Inc., Waltham, MA, USA), 2 mM L-glutamine, 1× non-essential amino acids, 8 mM HEPES, 25 μg/mL gentamycin and 1 µg/mL fungisone. The cells were incubated for 1 h at room temperature to reduce the edge effect and then overnight at 37 °C, 5% CO2 to obtain a 90% confluent cell layer.
(§9) The density of cells was 4 × 10^4 cells/well in 100 µL of MEM with Earle salts supplemented with 10% heat-inactivated FBS, 2 mM L-glutamine, 1× MEM vitamins, 1× non-essential amino acids, 0.005% Na-pyruvate, 25 µg/mL gentamycin, 1 µg/mL fungisone). The plates were incubated for 1 h room temperature and then overnight at 37 °C, 5% CO2. Next day, when the cells reached a ~90% confluency, the medium was supplemented with the serial 2-fold dilutions of the complexes in three parallel wells for each concentration. […] After 24 h incubation for Vero cells and 48 h incubation for HeLa cells, 10 µL of the MTT (Sigma, Steinheim, Germany) labelling reagent (final concentration 0.5 mg/mL) was added to each well and the plate was incubated for 4 h at 37 °C, 5% CO2. After the incubation, 100 µL of the solubilisation solution (10% SDS in 1 M HCl) was added into each well, and the plate was allowed to stand overnight in the incubator at 37 °C, 5% CO2.

[9] = target: ABCB1 (P-glycoprotein) efflux pump (Homo sapiens, UniProt P08183); experiment: Rhodamine 123 uptake/retention fluorescence assay (flow cytometry) in Colo 320 cells
Chain of ABCB1 (P-glycoprotein) efflux pump (P08183 whole entry): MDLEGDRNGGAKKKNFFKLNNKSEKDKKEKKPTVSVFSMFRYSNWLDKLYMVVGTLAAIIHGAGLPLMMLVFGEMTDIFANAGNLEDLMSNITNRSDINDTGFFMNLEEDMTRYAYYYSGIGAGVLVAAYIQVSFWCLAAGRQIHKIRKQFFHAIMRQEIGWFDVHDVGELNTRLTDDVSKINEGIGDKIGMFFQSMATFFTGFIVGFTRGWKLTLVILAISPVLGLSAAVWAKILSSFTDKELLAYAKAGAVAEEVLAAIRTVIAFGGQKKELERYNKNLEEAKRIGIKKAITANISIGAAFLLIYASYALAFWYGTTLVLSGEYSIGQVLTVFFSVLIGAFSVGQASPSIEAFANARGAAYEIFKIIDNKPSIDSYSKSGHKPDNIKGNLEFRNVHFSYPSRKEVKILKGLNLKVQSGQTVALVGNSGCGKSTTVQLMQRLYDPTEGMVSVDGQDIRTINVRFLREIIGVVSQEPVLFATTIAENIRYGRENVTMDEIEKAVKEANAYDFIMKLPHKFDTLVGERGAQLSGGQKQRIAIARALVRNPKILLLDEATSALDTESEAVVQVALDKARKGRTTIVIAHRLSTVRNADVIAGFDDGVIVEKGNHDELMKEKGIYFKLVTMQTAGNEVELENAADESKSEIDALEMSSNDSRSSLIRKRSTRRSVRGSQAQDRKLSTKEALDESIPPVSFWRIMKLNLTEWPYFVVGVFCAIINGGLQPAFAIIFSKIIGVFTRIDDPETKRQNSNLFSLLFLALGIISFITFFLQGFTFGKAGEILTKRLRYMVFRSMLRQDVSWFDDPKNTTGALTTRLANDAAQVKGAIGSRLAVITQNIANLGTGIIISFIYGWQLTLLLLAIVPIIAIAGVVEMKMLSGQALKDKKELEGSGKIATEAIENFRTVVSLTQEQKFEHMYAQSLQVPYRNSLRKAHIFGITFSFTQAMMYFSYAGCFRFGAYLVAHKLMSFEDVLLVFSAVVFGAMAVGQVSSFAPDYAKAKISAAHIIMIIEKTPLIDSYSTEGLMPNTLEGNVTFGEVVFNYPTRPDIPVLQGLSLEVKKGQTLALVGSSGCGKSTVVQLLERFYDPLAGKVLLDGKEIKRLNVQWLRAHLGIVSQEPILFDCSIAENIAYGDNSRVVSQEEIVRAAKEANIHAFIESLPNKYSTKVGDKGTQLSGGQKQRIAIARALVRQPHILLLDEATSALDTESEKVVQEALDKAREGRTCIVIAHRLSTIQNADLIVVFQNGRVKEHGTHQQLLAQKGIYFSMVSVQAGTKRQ
Experimental: It is important to note, that the resistance of this cell line is primarily mediated by the overexpression of the ABC-transporter P-glycoprotein, which pumps out xenobiotics from the cytosol. […] This dye is membrane-permeable and is rapidly taken up by the cells; therefore, it can be effectively used for the screening of efflux pump inhibiting compounds. […] Then the fluorescence accumulation ratios (FAR) were calculated (Figure 1) according to the equation given in the Materials and Methods section. Verapamil was used as a reference inhibitor compound.
This fluorescence-based detection system uses verapamil (a first-generation, competitive EPI) as reference inhibitor. […] The tested compounds were added at different concentrations (2 and 20 µM; from 1 and 10 mM stock solutions, respectively) and the samples were incubated for 10 min at room temperature.
The parameters evaluated from flow cytometric experiments are forward scatter count (FSC, provides information about cell size); side scatter count (SSC, proportional to cell granularity or internal complexity); mean fluorescence of the cells (FL-1) and the computed FAR and FAR quotients (Table S1).

Vero cells = experiment: MTT cytotoxicity in Vero cells (maximum non-toxic concentration); conditions: 24 h
Experimental: The antiviral effect of complexes against HSV-2 was screened using Vero cells (originally isolated from kidney epithelial cells) to host the growing viruses.
as §8, §9

[10] = Solution stability and speciation (UV-vis, 1H-NMR, pH-potentiometry); conditions: PBS’, pH 7.4, 2% DMSO, up to 24 h
Experimental: In order to confirm our prediction, time-dependent UV-visible (UV-vis) spectra were recorded for complexes 5–8 at pH 7.4 in aqueous solution (in modified phosphate buffered saline (PBS) buffer—PBS’) and in Eagle’s minimum essential medium (EMEM) used for the cytotoxicity studies in the presence of 2% (v/v) dimethyl sulfoxide (DMSO). […] Additionally, ^1H-NMR spectra were recorded for more water-soluble complexes 6–8.
In order to compare the stability of 1 and 3 at physiological pH, a serial dilution was made and UV-vis spectra were recorded in a wide concentration range (10 μM–3 mM) (Figure S10).
as §1, §2
^1H-NMR stability studies were carried out on a Bruker Avance III HD 500 MHz instrument. All ^1H-NMR spectra were recorded on samples containing 10% (v/v) D2O with the WATERGATE water suppression pulse scheme using DSS internal standard. Stability of complexes 6–8 was checked over time by ^1H-NMR spectroscopy at 500 μM in PBS’ or in EMEM (with 10% (v/v) DMSO-d6).

On1ccc2ccccc2c1=S [HHiQT, 2-hydroxyisoquinoline-1(2H)-thione]
pKa (physchem): 4.63 ± 0.08

Cc1ccc(C(C)C)cc1.[Cl][Ru]([Cl])[PH]12CN3CN(CN(C3)C1)C2 [RAPTA-C, [Ru(η^6-p-cymene) (PTA)Cl2], reference compound]
IC50 [1]: > 100 µM
IC50 [2]: > 100 µM
IC50 [3]: > 100 µM
MIC K. pneumoniae [4]: >100 µM
MIC S. aureus [5]: >100 µM
MIC E. faecalis [6]: >100 µM
MIC E. coli [7]: >100 µM

N.N.[Cl][Pt][Cl] [cisplatin, reference compound]
IC50 [1]: 5.58 ± 0.7 µM
S.I. MRC-5/Colo 320 [1]: 0.16
IC50 [2]: 29.8 ± 1.2 µM
S.I. MRC-5/Colo 205 [2]: 0.03
IC50 [3]: 0.88 ± 0.09 µM
MIC K. pneumoniae [4]: >100 µM
MIC S. aureus [5]: >100 µM
MIC E. faecalis [6]: >100 µM
MIC E. coli [7]: >100 µM

Cc1ccc(C(C)C)cc1.[Cl-].[O-]c1c(I)cc(Cl)c2cccnc12.[Ru+2] [complex 5]
IC50 [1]: 13.7 ± 0.85 µM
S.I. MRC-5/Colo 320 [1]: 0.21
maximum non-toxic concentration, HeLa 229 [8]: 25 µM
IC50 [2]: 21 ± 2.4 µM
S.I. MRC-5/Colo 205 [2]: 0.14
FAR fluorescence accumulation ratio ([9]; Colo 320, 2 μM): 6.19
FAR quotient (FAR related to that of 20 μM verapamil) ([9]; Colo 320, 2 μM): 128.7%
FSC forward scatter count ([9]; Colo 320, 2 μM): 1917
SSC side scatter count ([9]; Colo 320, 2 μM): 840
FAR fluorescence accumulation ratio ([9]; Colo 320, 20 μM): 3.66
FAR quotient (FAR related to that of 20 μM verapamil) ([9]; Colo 320, 20 μM): 76.0%
FSC forward scatter count ([9]; Colo 320, 20 μM): 1950
SSC side scatter count ([9]; Colo 320, 20 μM): 877
FL-1 mean fluorescence of the cells ([9]; Colo 320, rhodamine 123, 2 μM): 32.7
FL-1 mean fluorescence of the cells ([9]; Colo 320, rhodamine 123, 20 μM): 19.3
FAR value ([9]; Colo 320, tested at 2 μM and 20 μM): above 2
IC50 [3]: 2.95 ± 0.71 µM
MIC K. pneumoniae [4]: >100 µM
MIC S. aureus [5]: 25 µM
MIC E. faecalis [6]: 12.5 µM
MIC E. coli [7]: >100 µM
concentrations at which maximum cytotoxicity was observed, Vero (Vero cells): 12.5 to 100 µM
maximum non-toxic concentration, Vero (Vero cells): 6.25 µM
stability in PBS’ at pH 7.4, time-dependent UV-vis spectra [10]: No characteristic UV-vis spectral changes within 24 h
